Results from the supplement of paper PMC10627819.

Columns and labels:
B. subtilis 168 = assay: Bliss interaction score (quartile over a dose matrix) (fitness difference); higher = more antagonism (negative = synergy)
In short: (§1)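 Fitness was defined as normalised growth: OD595 at the start of stationary phase divided by the plate's robust no-drug mean and capped at 1. Single-drug fitness was inferred from combination measurements. The Bliss score is observed fitness minus the product of the single-drug values, summarised by quartiles across technical, biological and donor/recipient replicates.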

S. aureus DSM 20231 [1] = assay: as above
In short: as §1

S. pneumoniae D39V [2] = assay: as above
In short: as §1

S. aureus Newman [3] = assay: as above
In short: as §1

S. aureus DSM 20231 [4] = assay: fitness (endpoint OD595 vs no drug) (fraction); higher = more growth
In short: (§2)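 Fitness is computed from the optical density at which cultures reach stationary phase, divided by the robust mean of no-drug control wells. Any value above 1 is set to 1. Cultures started at OD595 0.01 in 384-well plates with TSB, LB Lennox or CY at 37 °C, and OD595 was read every 30 min for 14 h against a first-reading background.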

S. aureus Newman [5] = assay: as above
In short: as §2

S. pneumoniae D39V [6] = assay: as above
In short: as §2
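Throughout, for Bliss interaction score (quartile over a dose matrix): first quartile when negative (synergy) and third quartile when positive (antagonism).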
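Throughout, for fitness (endpoint OD595 vs no drug): OD595 on entry to stationary phase over no-drug wells; at most 1.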

Cc1cc(NS(=O)(=O)c2ccc(N)cc2)no1 [Sulfamethoxazol] + CCCCCCCCCC(=O)N[C@@H]1[C@H]([C@@H]([C@H](O[C@H]1OC2=C3C=C4C=C2OC5=C(C=C(C=C5)[C@H]([C@H]6C(=O)N[C@@H](C7=C(C(=CC(=C7)O)OC8[C@H]([C@H]([C@@H]([C@H](O8)CO)O)O)O)C9=C(C=CC(=C9)[C@H](C(=O)N6)NC(=O)[C@@H]4NC(=O)[C@@H]1C2=CC(=CC(=C2)OC2=C(C=CC(=C2)[C@H](C(=O)N[C@H](CC2=CC(=C(O3)C=C2)Cl)C(=O)N1)N)O)O)O)C(=O)O)O[C@H]1[C@@H]([C@H]([C@@H]([C@H](O1)CO)O)O)NC(=O)C)Cl)CO)O)O [Teicoplanin]
main component drawn
Settings	Bliss interaction score
B. subtilis 168	0.0811
S. aureus DSM 20231 [1]	0.0373
S. aureus Newman [3]	0.0326
S. pneumoniae D39V [2]	-0.0733

fitness, main component drawn
Settings	first compound 1 µg/mL	first compound 2 µg/mL	first compound 4 µg/mL
S. aureus DSM 20231 [4], partner 0.1562 µg/mL	0.941	≥ 1	0.965
S. aureus DSM 20231 [4], partner 0.3125 µg/mL	≥ 1	≥ 1	0.991
S. aureus DSM 20231 [4], partner 0.625 µg/mL	≥ 1	≥ 1	≥ 1
S. aureus Newman [5], partner 0.1562 µg/mL	≥ 1	≥ 1	≥ 1
S. aureus Newman [5], partner 0.3125 µg/mL	≥ 1	0.995	0.984
S. aureus Newman [5], partner 0.625 µg/mL	≥ 1	≥ 1	0.862

fitness, S. aureus Newman [5], one replicate, main component drawn
Settings	partner 0.1562 µg/mL	partner 0.3125 µg/mL	partner 0.62 µg/mL	partner 0.625 µg/mL	partner 1.24 µg/mL	partner 2.48 µg/mL
first compound 1 µg/mL	–	–	0.805	–	0.726	0.397
first compound 2 µg/mL	–	–	0.861	–	0.712	0.387
first compound 4 µg/mL	–	–	0.788	–	0.724	0.425
first compound 8 µg/mL	0.963	0.866	–	0.997	–	–

Cc1cc(NS(=O)(=O)c2ccc(N)cc2)no1 [Sulfamethoxazol] + CN[C@H](CC(C)C)C(=O)N[C@H]1C(=O)N[C@@H](CC(N)=O)C(=O)N[C@H]2C(=O)N[C@H]3C(=O)N[C@H](C(=O)N[C@H](C(=O)O)c4cc(O)cc(O)c4-c4cc3ccc4O)[C@H](O)c3ccc(c(Cl)c3)Oc3cc2cc(c3O[C@@H]2O[C@H](CO)[C@@H](O)[C@H](O)[C@H]2O[C@H]2C[C@](C)(N)[C@H](O)[C@H](C)O2)Oc2ccc(cc2Cl)[C@H]1O [Vancomycin]
Settings	Bliss interaction score
B. subtilis 168	-0.0423
S. aureus DSM 20231 [1]	0.0457
S. aureus Newman [3]	0.0422
S. pneumoniae D39V [2]	0.0444

fitness
Settings	first compound 1 µg/mL	first compound 2 µg/mL	first compound 4 µg/mL
S. aureus DSM 20231 [4], partner 0.1875 µg/mL	0.929	0.932	0.94
S. aureus DSM 20231 [4], partner 0.375 µg/mL	≥ 1	≥ 1	0.962
S. aureus DSM 20231 [4], partner 0.75 µg/mL	1	0.983	0.998
S. aureus Newman [5], partner 0.1875 µg/mL	0.991	0.988	≥ 1
S. aureus Newman [5], partner 0.375 µg/mL	0.993	0.968	≥ 1
S. aureus Newman [5], partner 0.75 µg/mL	0.977	0.953	≥ 1
S. pneumoniae D39V [6], partner 0.03125 µg/mL	0.964	0.961	0.97
S. pneumoniae D39V [6], partner 0.0625 µg/mL	0.909	0.899	0.961
S. pneumoniae D39V [6], partner 0.125 µg/mL	0.925	0.94	0.952

one replicate
Settings	fitness
S. aureus Newman [5], first compound 8 µg/mL, partner 0.1875 µg/mL	0.87
S. aureus Newman [5], first compound 8 µg/mL, partner 0.375 µg/mL	0.896
S. aureus Newman [5], first compound 8 µg/mL, partner 0.75 µg/mL	0.915
S. pneumoniae D39V [6], first compound 1 µg/mL, partner 0.25 µg/mL	0.262
S. pneumoniae D39V [6], first compound 1 µg/mL, partner 0.5 µg/mL	0.0171
S. pneumoniae D39V [6], first compound 2 µg/mL, partner 0.25 µg/mL	0.258
S. pneumoniae D39V [6], first compound 2 µg/mL, partner 0.5 µg/mL	0.0591
S. pneumoniae D39V [6], first compound 4 µg/mL, partner 0.25 µg/mL	0.772
S. pneumoniae D39V [6], first compound 4 µg/mL, partner 0.5 µg/mL	0.496

Cc1cc(NS(=O)(=O)c2ccc(N)cc2)no1 [Sulfamethoxazol] + Cn1nnc(-c2ccc(-c3ccc(N4C[C@H](CO)OC4=O)cc3F)cn2)n1 [Tedizolid]
Settings	Bliss interaction score
B. subtilis 168	-0.056
S. aureus DSM 20231 [1]	0.0501
S. aureus Newman [3]	0.0706
S. pneumoniae D39V [2]	-0.103

fitness
Settings	first compound 1 µg/mL	first compound 2 µg/mL	first compound 4 µg/mL
S. aureus DSM 20231 [4], partner 0.0625 µg/mL	0.919	0.922	0.883
S. aureus DSM 20231 [4], partner 0.125 µg/mL	0.586	0.626	0.565
S. aureus DSM 20231 [4], partner 0.25 µg/mL	0.213	0.232	0.223
S. aureus Newman [5], partner 0.0625 µg/mL	0.975	0.958	0.965
S. aureus Newman [5], partner 0.125 µg/mL	0.901	0.94	0.934
S. aureus Newman [5], partner 0.25 µg/mL	0.576	–	–
S. pneumoniae D39V [6], partner 0.03125 µg/mL	0.942	0.945	0.964
S. pneumoniae D39V [6], partner 0.0625 µg/mL	0.933	0.944	0.914
S. pneumoniae D39V [6], partner 0.125 µg/mL	0.754	0.781	0.777

fitness, one replicate
Settings	partner 0.0625 µg/mL	partner 0.125 µg/mL	partner 0.25 µg/mL	partner 0.5 µg/mL
S. aureus Newman [5], first compound 8 µg/mL	0.867	0.873	0.687	–
S. pneumoniae D39V [6], first compound 1 µg/mL	–	–	0.48	0.549
S. pneumoniae D39V [6], first compound 2 µg/mL	–	–	0.529	0.548
S. pneumoniae D39V [6], first compound 4 µg/mL	–	–	0.558	0.505
